From article PMC12514245, “Impaired migration and lung invasion of human melanoma by a novel small molecule targeting the transmembrane domain of death receptor p75^NTR” (EMBO Molecular Medicine, 2025)
Several values for one entry are separate records, joined by “and”; a condition that tells them apart may be missing. Equal entries are not always repeated. Entries after “also recorded” stand apart in the source; their conditions may differ.

Assays:
[1] = system: A875 melanoma cells (NT); test: Cleaved PARP western blot (apoptosis), A875 NT; assay type: cell-based, human
Method: One of the main biological readouts of p75^NTR activity in response to neurotrophins is the induction of caspase-mediated apoptotic cell death (Underwood and Coulson, [2008]; Friedman, [2010]; Ibáñez and Simi, [2012]).
COS7, A875 and WM115 cell lines were cultured under standard conditions in DMEM supplemented with 10% fetal calf serum, 100 units/ml penicillin, […] streptomycin, and 2.5 mM glutamine. All cells were authenticated and tested for mycoplasma contamination. A875-NT (control) and A875 shp75 (knockdown) cell lines were described previously (Goh et al, [2018]).

[2] = system: A875 NT cells; test: Boyden chamber chemotaxis/invasion assay, A875 NT; assay type: cell-based, human; conditions: for Fold change - invading cells, Mean / Fold change - invading cells, individual replicates: 1μM
Method: (§1) For Boyden chamber assay, Corning® BioCoat™ Matrigel® Invasion Chambers 8.0 µm PET Membrane were used (cat. no. 354480). A875 NT or WM115 cells were serum-starved for 16 h and then seeded at 60,000 cells per well in serum-free media under different conditions, including DMSO (vehicle) or small molecules Div17E5 or Np75-4A22 at different concentrations to the top chamber of the Matrigel-coated trans-well chamber. The pan-caspase inhibitor Q_VD_poH (at 5 µM) was also introduced in the top chamber in some experiments. Two different chemoattractants, NGF (at 50 ng/ml or 100 ng/ml as indicated) or 10% FBS were added to the bottom chamber. Assays were carried out for 8 h after which filters were fixed in 4% PFA and stained with DAPI. Cells that had remained on the top of the filter were gently scrapped away with a cotton tip. The filter lower side was imaged on an inverted fluorescence microscope and counted using ImageJ software (NIH).

[3] = system: WM115 cells; test: Boyden chamber chemotaxis assay, WM115; assay type: cell-based, human; conditions: for values normalized to vehicle, mean (Figure 6E): mean of EXP1-3; for values normalized to vehicle (Figure 6E): single experiments EXP1-3
Method: as §1

[4] = biological target: TMD of TrkB receptor tyrosine kinase (Homo sapiens, UniProt Q16620); test: 2D NMR chemical shift perturbation, TrkB TMD in bicelles; assay type: binding; conditions: 4 molar excess compound
Chain of TMD of TrkB receptor tyrosine kinase (Q16620 419-466): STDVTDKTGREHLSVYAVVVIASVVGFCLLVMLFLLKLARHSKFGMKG

[5] = system: A875 shp75 cells; test: Filopodia per cell (phalloidin staining), A875 shp75; assay type: cell-based, human; conditions: for filopodia per cell (mean of 3 experiments) / filopodia per cell (mean of one experiment): A875 shp75; for filopodia per cell (mean of one experiment): EXP1-EXP3
Method: For assessment of actin filaments, A875 cells were plated on glass coverslips in 24-well plate at a confluency of 3 × 10^4 cells/well. One day after plating, the cells were treated with 1 μM or 5 μM Np75-4A22 and NGF (100 ng/ml) or PBS for 24 h. Cells were fixed in 4% paraformaldehyde, permeabilized in 0.1% Triton-X-100, stained with Phalloidin-iFluor 488 (Abcam) at 1:2000 dilution and DAPI for 1 h. Coverslips were mounted and visualized in a laser confocal microscope.

[6] = biological target: p75^NTR TMD (Homo sapiens, UniProt P08138); test: 2D NMR (1H-15N TROSY-HSQC) chemical shift perturbation, p75NTR TMD in bicelles; conditions: 4 molar excess compound
Chain of p75^NTR TMD (P08138 240-274 limits assumed): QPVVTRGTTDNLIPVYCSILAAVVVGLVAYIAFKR

[7] = A875 shp75, EXP3, 1 uM 4A22 + 100 ng/ml NGF
[8] = A875 shp75 cells, EXP1, 1 uM 4A22, wells 1-4
[9] = A875 shp75 cells, EXP1, 5 uM 4A22 + 100 ng/ml NGF, wells 1-4
[10] = A875 shp75 cells, EXP2, 1 uM 4A22 + 100 ng/ml NGF, wells 1-4
[11] = A875 shp75 cells, EXP2, 5 uM 4A22 + 100 ng/ml NGF, wells 1-4
[12] = A875 shp75 cells, EXP2, 5 uM 4A22, wells 1-4

## Cc1cccc(-c2cncc(Nc3ccc(Br)c(Cl)c3Cl)n2)c1C [Np75-4A22]
[1]; 0.5uM
  Cleaved PARP normalized to DMSO, individual replicates: 5.004 and 2.098 and 0.920
  Cleaved PARP/actin, individual replicates: 0.036 and 0.018 and 0.00739
[1]; 0.5μM
  Cleaved PARP normalized to DMSO, Average: 2.674
[1]; 1uM
  Cleaved PARP normalized to DMSO, individual replicates: 1.063 and 1.446 and 0.643
  Cleaved PARP/actin, individual replicates: 0.008 and 0.012 and 0.005
[1]; 1μM
  Cleaved PARP normalized to DMSO, Average: 1.051
[1]; 2uM
  Cleaved PARP normalized to DMSO, individual replicates: 0.550 and 3.611 and 2.270
  Cleaved PARP/actin, individual replicates: 0.004 and 0.031 and 0.018
[1]; 2μM
  Cleaved PARP normalized to DMSO, Average: 2.144
[1]; 5uM
  Cleaved PARP normalized to DMSO, individual replicates: 1.726 and 2.128 and 2.224
  Cleaved PARP/actin, individual replicates: 0.013 and 0.018
[1]; 5μM
  Cleaved PARP normalized to DMSO, Average: 2.026
[1]; submicromolar and low micromolar range (0.5 to 5 µM)
  apoptosis (PARP cleavage): did not induce apoptosis
[2]; 0.5μM, NGF (50 ng/ml)
  INVADING CELLS Average: 217.00
  INVADING CELLS Fold Average: 1.60 Fold
  INVADING CELLS Fold change: 1.65 Fold and 1.68 Fold and 1.46 Fold
  INVADING CELLS count: 224 and 229 and 198
[2]; 0.5μM, No NGF
  INVADING CELLS Average: 115.33
  INVADING CELLS Fold Average: 0.85 Fold
  INVADING CELLS Fold change: 0.82 Fold and 0.92 Fold and 0.80 Fold
  INVADING CELLS count: 112 and 125 and 109
[2]; 0.75μM, NGF (50 ng/ml)
  INVADING CELLS Average: 161.00
  INVADING CELLS Fold Average: 1.18 Fold
  INVADING CELLS Fold change: 1.31 Fold and 1.11 Fold and 1.13 Fold
  INVADING CELLS count: 178 and 151 and 154
[2]; 0.75μM, No NGF
  INVADING CELLS Average: 131.00
  INVADING CELLS Fold Average: 0.96 Fold
  INVADING CELLS Fold change: 0.99 Fold and 1.01 Fold and 0.90 Fold
  INVADING CELLS count: 134 and 137 and 122
[2]; NGF
  Fold change - invading cells, Mean: 1.46
  Fold change - invading cells, individual replicates: 1.24 and 1.52 and 1.63
[2]; no NGF
  Fold change - invading cells, Mean: 0.96
  Fold change - invading cells, individual replicates: 1.22 and 0.88 and 0.78
[2]; 1 μM, NGF 50 ng/ml
  NGF activity in Boyden chamber assay of cell chemotaxis: blocked all NGF activity
[2]; submicromolar concentrations, NGF 50 ng/ml
  NGF-induced A875 chemotaxis: significantly reducing
[3]; 100 ng/ml NGF & 1 uM 4A22
  values normalized to vehicle, mean (Figure 6E): 1.0063
  values normalized to vehicle (Figure 6E): 0.9175 and 0.9379 and 1.163
[3]; 1μM
  spontaneous migration of WM115 cells: without affecting the spontaneous migration
[3]; 1 uM 4A22
  values normalized to vehicle, mean (Figure 6E): 0.8431
  values normalized to vehicle (Figure 6E): 0.9343 and 0.8878 and 0.7073
[3]; 1 μM, NGF 100 ng/ml
  NGF-induced migration of WM115 cells: blocked this activity
[4]
  chemical shift perturbations, TrkB TMD: mostly non-specific interaction; also recorded: no or minimal chemical shift perturbations
[5]; 1 or 5 μM
  filopodia per cell, compound alone: no effects per se
[5]; [7]
  filopodia per cell (single image): 35
  filopodia per cell (well mean): 35.0833 and 29.3333 and 46.5 and 31.1667
[5]; A875 shp75, EXP3, 5 uM 4A22
  filopodia per cell (single image): 35
  filopodia per cell (well mean): 26.25 and 40.3333 and 46.1111 and 41.3333
[5]; A875 shp75, EXP3, 5 uM 4A22 + 100 ng/ml NGF
  filopodia per cell (well mean): 35.1667 and 32.8333 and 43.3889 and 37.5
[5]; 100ng/ml NGF&1uM 4A22
  filopodia per cell (mean of 3 experiments): 37.2384
  filopodia per cell (mean of one experiment): 38.132 and 38.0625 and 35.5208
[5]; 100ng/ml NGF&5uM 4A22
  filopodia per cell (mean of 3 experiments): 37.6510
  filopodia per cell (mean of one experiment): 35.6615 and 40.0695 and 37.2222
[5]; 1uM 4A22
  filopodia per cell (mean of 3 experiments): 34.8819
  filopodia per cell (mean of one experiment): 30.6458 and 39.4583 and 34.5417
[5]; 5uM 4A22
  filopodia per cell (mean of 3 experiments): 36.6829
  filopodia per cell (mean of one experiment): 35.8958 and 35.6458 and 38.5069
[5]; A875 shp75 cells, EXP1, 1 uM 4A22 + 100 ng/ml NGF, wells 1-4
  filopodia per cell (well mean): 34.0833 and 42.6667 and 40.1111 and 35.6667
[5]; [8]
  filopodia per cell (single image): 35
  filopodia per cell (well mean): 28.25 and 31.6667 and 30.4167 and 32.25
[5]; [9]
  filopodia per cell (single image): 35
  filopodia per cell (well mean): 38.8333 and 30.1667 and 37.3125 and 36.3333
[5]; A875 shp75 cells, EXP1, 5 uM 4A22, wells 1-4
  filopodia per cell (well mean): 36.5 and 34.5 and 32.75 and 39.8333
[5]; [10]
  filopodia per cell (single image): 35
  filopodia per cell (well mean): 43.1667 and 38 and 39.3333 and 31.75
[5]; A875 shp75 cells, EXP2, 1 uM 4A22, wells 1-4
  filopodia per cell (well mean): 35.6667 and 37.1667 and 36.6667 and 48.3333
[5]; [11]
  filopodia per cell (single image): 35
  filopodia per cell (well mean): 43.6667 and 38.1667 and 45.6111 and 32.8333
[5]; [12]
  filopodia per cell (single image): 35
  filopodia per cell (well mean): 36.5 and 31 and 38.1667 and 36.9167
[6]
  chemical shift perturbations, p75NTR TMD: Significant chemical shifts
